# Results reported in patent publication US20250304537A1 (Repare Therapeutics Inc., priority 2022, published 2025).
# pIC50: −log10 of the molar value.
# Biological target: recombinant human Myt1 (full length PKMYT1) (Homo sapiens (Human), UniProt Q99640)
# Assay: Recombinant human Myt1 kinase assay (ADP-Glo)
# Type: biochemical
# Settings: 10 μM ATP
# Experimental: Detection of Myt1 kinase activity utilized a recombinant human Myt1 kinase assay measuring the hydrolysis of ATP using a commercially available ADP-Glo Assay (ADP-Glo™ Kinase Assay from Promega, 10 000 assays, #V9102). Briefly, 5 μL recombinant human Myt1 (full length PKMYT1 recombinant human protein expressed in insect cells from Thermo Fisher #A33387; ˜80% purity) was prepared in reaction buffer (70 mM HEPES, 3 mM MgCl2, 3 mM MnCl2, 50 μg/ml PEG 20000, 3 μM Na-orthovanadate, 1.2 mM DTT) and added to 384 well white polystyrene, flat bottom well, non-treated, microplate (Corning #3572). After this, 5 μL of compounds (diluted in reaction buffer to 0.5% DMSO) was added to the microplate and the plate was spun briefly and incubated at 22° C. for 15 minutes. Ultra-Pure Adenosine Triphosphate (ATP) solution (ADP-Glo kit from Promega) was diluted in reaction buffer and 5 μL was added to the microplate, spun down briefly and incubated for 60 minutes at 30° C. The final Myt1 enzyme concentration was 18 nM and the final ATP concentration was 10 μM. After the 60-minute incubation, 15 μL of ADP-Glo reagent was added and the plate was spun briefly and sealed and incubated in the dark for 40 minutes at 22° C. Following this, 30 μL of kinase detection reagent was added per well and the plate was spun briefly, sealed and incubated for 45-60 minutes at 22° C. in the dark. Luminescence was read using the Envision (250 ms integration). The IC50 and the % max inhibition were calculated for each inhibitor compound tested.
# recombinant human Myt1 (full length PKMYT1), sequence (Q99640 whole entry): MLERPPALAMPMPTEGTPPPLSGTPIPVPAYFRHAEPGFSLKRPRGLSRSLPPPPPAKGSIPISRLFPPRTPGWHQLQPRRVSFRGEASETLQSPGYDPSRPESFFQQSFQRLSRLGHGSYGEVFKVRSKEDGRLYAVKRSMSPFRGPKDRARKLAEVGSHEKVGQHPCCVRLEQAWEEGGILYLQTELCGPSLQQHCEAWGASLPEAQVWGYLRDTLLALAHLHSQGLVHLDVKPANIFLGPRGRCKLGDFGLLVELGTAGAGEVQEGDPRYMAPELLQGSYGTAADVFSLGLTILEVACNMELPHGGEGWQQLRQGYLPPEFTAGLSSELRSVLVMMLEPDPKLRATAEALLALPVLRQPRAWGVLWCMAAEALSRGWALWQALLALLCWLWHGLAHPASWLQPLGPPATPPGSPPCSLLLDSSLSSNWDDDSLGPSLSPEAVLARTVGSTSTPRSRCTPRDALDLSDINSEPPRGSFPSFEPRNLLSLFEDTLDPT
row,pIC50,Compound
1,7.38,Cc1ccc(O)cc1-c1nc(-c2ccc(N3CCOCC3)cc2)nc(C(N)=O)c1N [Compound 37]
2,7.32,Cc1ccc2[nH]ncc2c1-c1nc(-c2ccccc2N)nc(C(N)=O)c1N [Compound 319]
3,7.85,Cc1ccc2[nH]ncc2c1-c1nc(-c2cccc3ccsc23)nc(C(N)=O)c1N [Compound 379]
4,7.60,Cc1ccc(O)cc1-c1nc(-c2cccc(C(N)=O)c2)nc(C(N)=O)c1N [Compound 8]
5,7.82,Cc1ccc2[nH]ncc2c1-c1nc(-c2ccnc(N3CCOCC3)c2)nc(C(N)=O)c1N [Compound 155]
6,7.05,Cc1ccc2[nH]ncc2c1-c1nc(-c2ccccn2)nc(C(N)=O)c1N [Compound 117]
7,7.70,Cc1nc(COc2nccc(-c3cc(-c4c(C)ccc5[nH]ncc45)c(N)c(C(N)=O)n3)n2)co1 [Compound 316]
8,8.40,"CO[C@@H](COc1cccc(-c2cc(-c3c(C)ccc4[nH]ncc34)c(N)c(C(N)=O)n2)n1)C1CC1 (atropisomer, axis not shown) [Compound 363]"
9,7.35,Cc1ccc(O)cc1-c1nc(-c2ccc(F)c(Cl)c2)nc(C(N)=O)c1N [Compound 28]
10,7.55,Cc1ccc2[nH]ncc2c1-c1nc(-c2cccc3cc[nH]c23)nc(C(N)=O)c1N [Compound 366]
11,7.60,Cc1ccc2[nH]ncc2c1-c1nc(-c2ccc3cnn(C)c3c2)nc(C(N)=O)c1N [Compound 119]
12,6.50,Cc1ccc2[nH]ncc2c1-c1nc(-c2ccc(C(F)(F)F)cc2)nc(C(N)=O)c1N [Compound 104]
13,8.10,Cc1ccc2[nH]ncc2c1-c1cc(-c2cccc(OCc3cncs3)n2)nc(C(N)=O)c1N [Compound 279]
14,8.05,Cc1ccc2[nH]ncc2c1-c1cc(-c2ccnc(N3CCCC(O)C3)n2)nc(C(N)=O)c1N (centres unmarked) [Compound 367]
15,7.21,Cc1ccc2[nH]ncc2c1-c1cc(-c2csc(C3(O)COC3)n2)nc(C(N)=O)c1N [Compound 223]
16,< 5.70,Cc1ccc2[nH]ncc2c1-c1cc(-c2ccnc(OCCc3ccncn3)n2)nc(C(N)=O)c1N [Compound 311]

row,pIC50,Compound
1,7.57,Cc1ccc2[nH]ncc2c1-c1nc(-c2cccc(C(C)(C)C#N)c2)nc(C(N)=O)c1N [Compound 126]
2,7.36,CNc1ccc(-c2nc(C(N)=O)c(N)c(-c3c(C)ccc4[nH]ncc34)n2)cc1 [Compound 152]
3,7.60,Cc1ccc2[nH]ncc2c1-c1cc(-c2cccc(OCCN3CCN(C)CC3)n2)nc(C(N)=O)c1N [Compound 307]
4,6.74,Cc1ccc2[nH]ncc2c1-c1cc(-c2ccnc(OCCOc3ccccc3)n2)nc(C(N)=O)c1N [Compound 195]
5,6.51,Cc1ccc2[nH]ncc2c1-c1nc(-c2ccc(OC3CCOCC3)c(C#N)c2)nc(C(N)=O)c1N [Compound 118]
6,6.47,Cc1ccccc1-c1nc(C(N)=O)c(N)c(-c2cc(O)ccc2C)n1 [Compound 31]
7,6.89,Cc1cc(-c2nc(C(N)=O)c(N)c(-c3c(C)ccc4[nH]ncc34)n2)cc(C(F)(F)F)c1 [Compound 144]
8,7.60,Cc1ccc2[nH]ncc2c1-c1cc(-c2ccnc(OCCOCCN(C)C)n2)nc(C(N)=O)c1N [Compound 192]
9,7.74,Cc1ccc2[nH]ncc2c1-c1cc(-c2ccnc(OCc3cncn3C3CCCCC3)n2)nc(C(N)=O)c1N [Compound 328]
10,7.36,Cc1cnc(-c2nc(C(N)=O)c(N)c(-c3cc(O)ccc3C)n2)s1 [Compound 9]
11,6.99,COc1ccccc1COc1cccc(-c2cc(-c3c(C)ccc4[nH]ncc34)c(N)c(C(N)=O)n2)n1 [Compound 181]
12,< 5.70,Cc1ccc2[nH]ncc2c1-c1nc(-c2cc(F)c(F)cc2NC2CN(C(=O)OC(C)(C)C)C2)nc(C(N)=O)c1N [Compound 479]
13,7.37,Cc1ccc2[nH]ncc2c1-c1nc(-c2cccc(Cl)c2N)nc(C(N)=O)c1N [Compound 444]
14,7.82,COc1cc(-c2nc(C(N)=O)c(N)c(-c3cc(O)ccc3C)n2)ccn1 [Compound 25]
15,7.16,"Cc1ccc2[nH]ncc2c1-c1cc(-c2ccnc(O[C@H](C)c3ncccn3)n2)nc(C(N)=O)c1N (atropisomer, axis not shown) [Compound 358]"

# Second part, the compound before the results:
row,Compound,pIC50
1,"Cc1ccc2[nH]ncc2c1-c1nc(-c2ccccc2)nc(C(N)=O)c1Cl [Compound 75, 5-chloro-6-(5-methyl-1H-indazol-4-yl)-2-phenylpyrimidine-4-carboxamide]",< 5.70
2,"CO[C@H](COc1cccc(-c2cc(-c3c(C)ccc4[nH]ncc34)c(N)c(C(N)=O)n2)n1)C1CC1 (atropisomer, axis not shown) [Compound 364]",8.10
3,COCc1cccc(-c2nc(C(N)=O)c(N)c(-c3c(C)ccc4[nH]ncc34)n2)c1 [Compound 292],7.74
4,Cc1ccc2[nH]ncc2c1-c1cc(-c2ccn(C)n2)nc(C(N)=O)c1N [Compound 171],7.02
5,Cc1ccc2[nH]ncc2c1-c1cc(-c2ccnc(OCc3cc4ccccc4o3)n2)nc(C(N)=O)c1N [Compound 196],6.12
6,CNC(=O)c1cccc(-c2nc(C(N)=O)c(N)c(-c3c(C)ccc4[nH]ncc34)n2)c1 [Compound 285],7.70
7,Cc1ccc2[nH]ncc2c1-c1cc(-c2ccnc(OCCc3cccnc3)n2)nc(C(N)=O)c1N [Compound 272],7.92
8,Cc1ccc(O)c(C)c1-c1cc(-c2ccnnc2)cc(C(N)=O)c1N [Compound 149],6.13
9,Cc1ccc(O)cc1-c1nc(-c2cccc(F)n2)nc(C(N)=O)c1N [Compound 5],7.60
10,Cc1cccc(-c2nc(C(N)=O)c(N)c(-c3cc(O)ccc3C)n2)c1 [Compound 30],7.13
11,"Cc1ccc2[nH]ncc2c1-c1cc(-c2cccc(OCC3(N)CC3)n2)nc(C(N)=O)c1N (atropisomer, axis not shown) [Compound 382]",8.52
12,Cc1ccc2[nH]ncc2c1-c1cc(-c2ccc(=O)[nH]c2)nc(C(N)=O)c1N [Compound 178],7.17
13,CCC(COc1cccc(-c2cc(-c3c(C)ccc4[nH]ncc34)cc(C(N)=O)n2)n1)OC (centres unmarked) [Compound 498],7.03
14,Cc1ccc2[nH]ncc2c1-c1cc(-c2ccnc(NCCCO)n2)nc(C(N)=O)c1N [Compound 343],7.70
15,Cc1ccc2[nH]ncc2c1-c1nc(-c2cccc(CC#N)c2)nc(C(N)=O)c1N [Compound 281],8.10
16,Cc1ccc2[nH]ncc2c1-c1nc(-c2cccc(N(C)C)c2)nc(C(N)=O)c1N [Compound 139],7.24
17,Cc1ccc2[nH]ncc2c1-c1nc(-c2ccc(N3CCOCC3)c(C(F)(F)F)c2)nc(C(N)=O)c1N [Compound 157],6.04

row,Compound,pIC50
1,"NC(=O)c1nc(-c2cccnc2)cc(-c2c(C(F)F)ccc3[nH]ncc23)c1N [Compound 321, 5-amino-4-(5-(difluoromethyl)-1H-indazol-4-yl)-[2,3′-bipyridine]-6-carboxamide]",< 5.70
2,Cc1ccc2[nH]ncc2c1-c1nc(-c2cccc(CN3CCOCC3)c2)nc(C(N)=O)c1N [Compound 283],7.52
3,Cc1ccc2[nH]ncc2c1-c1nc(-c2cccc(C(F)(F)F)c2)nc(C(N)=O)c1N [Compound 112],7.00
4,Cc1ccc(O)c(C)c1-c1cc(-c2cc3ccccc3n2C)nc(C(N)=O)c1N [Compound 46],7.21
5,Cc1ccc2[nH]ncc2c1-c1cc(-c2ccnc(N3CCCCC3CCO)n2)nc(C(N)=O)c1N (centres unmarked) [Compound 404],7.62
6,"Cc1ccc2[nH]ncc2c1-c1cc(-c2ccnc(O[C@@H](C)c3ncccn3)n2)nc(C(N)=O)c1N (atropisomer, axis not shown) [Compound 357]",8.30
7,Cc1ccc2[nH]ncc2c1-c1cc(-c2ccc(OC3COC3)nc2)nc(C(N)=O)c1N [Compound 201],7.04
8,"Cc1ccc(O)cc1-c1cc(C(N)=O)nc2ccccc12 [Compound 74, 4-(5-hydroxy-2-methylphenyl)quinoline-2-carboxamide]",5.54
9,COCCOc1ccc(-c2nc(C(N)=O)c(N)c(-c3c(C)ccc4[nH]ncc34)n2)cc1 [Compound 124],7.60
10,NC(=O)c1nc(-c2ccnnc2)cc(-c2c(Cl)ccc3[nH]ncc23)c1N [Compound 106],7.55
11,Cc1ccc2[nH]ncc2c1-c1nc(-c2cccc(CN(C)C)c2)nc(C(N)=O)c1N [Compound 291],7.60
12,Cc1ccc2[nH]ncc2c1-c1cc(-c2ccnc(OCC3CCC(=O)N3)n2)nc(C(N)=O)c1N (centres unmarked) [Compound 317],7.89
13,CCS(=O)(=O)c1ccccc1-c1nc(C(N)=O)c(N)c(-c2c(C)ccc3[nH]ncc23)n1 [Compound 800],6.00
14,"Cc1ccc2[nH]ncc2c1-c1cc(-c2ccnc(OCCN3CCCC3)n2)nc(C(N)=O)c1N (atropisomer, axis not shown) [Compound 233]",6.07
15,"Cc1ccc2[nH]ncc2c1-c1cc(-c2ccccn2)cc(C(N)=O)c1N [Compound 137, 2-amino-3-(5-methyl-1H-indazol-4-yl)-5-(pyridin-2-yl)benzamide]",7.34
16,Cc1ccc2[nH]ncc2c1-c1cc(-c2ccnc(OCCN(C)C(=O)OC(C)(C)C)n2)nc(C(N)=O)c1N [Compound 209],7.14
17,"COCCOc1cccc(-c2cc(-c3c(C)ccc4[nH]ncc34)c(N)c(C(N)=O)n2)n1 (atropisomer, axis not shown) [Compound 270]",5.94
